Where two headings read alike, the source gives them in different places. Blank lines part the entries; values can stand above or below the molecule they belong to.
Key:
[1] = urine levels after oral administration, rats; type: in vivo; details: compared with oral administration of the compound of formula (I) itself
[2] = urine levels after oral administration, mice; type: in vivo; details: compared with oral administration of the compound of formula (I) itself
[3] = toxicity in mice after administration by gavage; type: in vivo; details: 44.5 mg per kg by gavage, suspension in 5% Tween 80, 28 male CD-1 mice
Method: The compound of formula (II) was administered to 28 male CD-1 mice by gavage. The dose was 44.5 mg per kg of body weight and was in suspension in 5% Tween 80 at a concentration of 5 mg/ml.

human CMV = experiment: plaque reduction assay in human foreskin fibroblast monolayers; type: cell-based; details: for EC50: Human betaherpesvirus 5, Fibroblast, 192 h, Human Foreskin Fibroblasts, 8 days, read-out: ED₅₀
Method: Confluent monolayers of human diploid fibroblast cells (i.e., human foreskin fibroblast cells) were infected with 200-300 µL of a suspension containing 50-100 human CMV infectious virions per culture well and allowed to incubate for 90 minutes at 37 degrees C in a CO₂ incubator. Unadsorbed virus was then removed by aspiration and appropriate concentrations of 1-[2-hydroxy-1-(hydroxymethyl)ethoxymethyl] cytosine were added in Eagle's Minimal Essential Media containing 2% fetal calf serum in an agarose overlay (0.6%). The assay plates were incubated at 37 degrees C in a CO₂ incubator for 8 days to allow plaque development. The monolayers were then fixed with 10% formalin in phosphate buffered saline and stained wth 0.8% crystal violet. The plaques were counted at 3x magnification using a Bausch and Lomb dissecting microscope, and the data were analysed by SAS Probit (SAS Institute, Inc., Cary, N.C., U.S.A.) to give the following results: […]

Epstein-Barr Virus (EBV) = experiment: EBV-specific cRNA-DNA hybridization, EBV genome equivalents in P3HR-1 cells; type: cell-based
Method: 1-[2-Hydroxy-1-(hydroxymethyl)ethoxymethyl]cytosine was assayed for activity against Epstein-Barr Virus (EBV) using an adaptaion of the procedure described in Nature New Biology, 233, 103-106 (1971). This technique, employing an EBV-specific cRNA-DNA hybridization on filter membranes, detects the amount of EBV genome equivalents produced in the virus-producing cell lines. In this assay the EBV-producing cell line […]-1 (ATCC HTB 62) was exposed to various concentrations of 1-[2-hydroxy-1-(hydroxymethyl)-ethoxymethyl]cytosine for 14 days and EBV genome equivalents per cell were then determined to give an ED50 of approximately 0.05 μM.

HSV-1 = details: concentrations up to 100 ug; Ogilvy et al, Nucleosides and Nucleotides (1983); cited from earlier work
VZV = experiment: antiviral test against VZV; details: antiviral tests, general statement
[4] = antiviral tests, general statement

Compound: CC(C)(C)C(=O)OCC(COC(=O)C(C)(C)C)OCn1ccc(N)nc1=O [compound of formula (II), 2-[(4-Amino-1,2-dihydro-2-oxo-1-pyrimidinyl)methoxy]-1,3-propanediyl Dipivalate]
body fluid levels of the compound of formula (I), as demonstrated by urine levels [1]: substantially higher
body fluid levels of the compound of formula (I), as demonstrated by urine levels [2]: substantially higher
signs of toxicity [3]: No signs of toxicity were observed

EC50 (Epstein-Barr Virus (EBV); human gammaherpesvirus 4, 336 h, P3HR-1 (ATCC HTB 62) cells exposed for 14 days, read-out: ED₅₀ (EBV genome equivalents per cell)): ~50 nM
Compound: Nc1ccn(COC(CO)CO)c(=O)n1 [1-[2-Hydroxy-1-(hydroxymethyl)ethoxymethyl]cytosine]
EC50 (human CMV; Virus Strain ATCC VR-538 (strain AD169)): 3700 ± 700 nM
EC50 (human CMV; Virus Strain Kerr): 1900 ± 200 nM
activity against CMV (human CMV; [4]): surprisingly good activity
activity against EBV (Epstein-Barr Virus (EBV); [4]): surprisingly good activity
activity against HSV-1 (HSV-1): no activity
activity against VZV (VZV): surprisingly good activity
